The structures appear in SMILES notation. pIC50: −log10 of the molar value.

The assay concerns the target T1, GR (Homo sapiens, UniProt P04150).
T1 construct: expressed in transfected cells; host or cells: CHO-K1
T1 sequence (P04150 1-777): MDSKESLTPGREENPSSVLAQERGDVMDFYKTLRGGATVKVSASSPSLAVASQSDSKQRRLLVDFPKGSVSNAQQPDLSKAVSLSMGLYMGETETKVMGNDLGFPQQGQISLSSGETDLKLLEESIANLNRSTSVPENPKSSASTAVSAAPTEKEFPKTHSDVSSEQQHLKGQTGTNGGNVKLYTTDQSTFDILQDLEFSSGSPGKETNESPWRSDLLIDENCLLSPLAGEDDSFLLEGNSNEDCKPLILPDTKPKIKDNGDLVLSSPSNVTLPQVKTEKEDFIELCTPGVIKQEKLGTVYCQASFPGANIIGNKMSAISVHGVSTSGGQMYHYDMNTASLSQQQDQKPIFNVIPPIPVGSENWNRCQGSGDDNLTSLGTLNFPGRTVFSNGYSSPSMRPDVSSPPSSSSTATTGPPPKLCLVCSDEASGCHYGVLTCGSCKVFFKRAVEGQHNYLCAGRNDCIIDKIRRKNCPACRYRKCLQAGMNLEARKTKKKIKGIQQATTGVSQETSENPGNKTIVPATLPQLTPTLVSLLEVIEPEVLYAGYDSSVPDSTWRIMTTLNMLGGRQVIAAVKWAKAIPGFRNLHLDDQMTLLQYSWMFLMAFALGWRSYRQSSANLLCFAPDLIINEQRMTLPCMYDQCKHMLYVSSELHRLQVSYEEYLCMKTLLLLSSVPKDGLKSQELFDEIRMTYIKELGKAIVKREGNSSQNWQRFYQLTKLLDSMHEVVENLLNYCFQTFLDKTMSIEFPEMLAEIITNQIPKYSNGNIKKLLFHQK
Briefly: In Vitro GR Luciferase Reporter Assay (antagonist mode, CHO-K1-GR-MMTV-Luc reporter cells). The format is cell-based. Particulars: antagonist assay with 10 nM Dexamethasone, 18-24 hours. Put shortly:
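CHO-K1-GR-MMTV-Luc cells in phenol red-free DMEM with 10% CSS, stimulated with 10 nM dexamethasone (final) and treated with 8-point 1:5 compound dilutions for about 18-24 h at 37° C. Luciferase measured by OneGlo luminescence; IC50 derived for inhibition of GR activity.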
In general terms: Reporter assays use an easily measured gene product as a stand-in for the process of interest.
The compound `CC1(O)CCC(S(=O)(=O)[C@H]2CCC3=Cc4c(cnn4-c4ccc(F)cc4)C[C@]3(C(=O)c3ccccn3)C2)CC1` (stereo partly drawn) [Example 60, ((4aS,6S)-1-(4-fluorophenyl)-6-((4-hydroxy-4-methylcyclohexyl)sulfonyl)-1,4,5,6,7,8-hexahydro-4aH-benzo[f]indazol-4a-yl)(pyridin-2-yl)methanone] gave a pIC50 of no less than 7.00.

Turning to `COc1ccc(C(=O)[C@]23Cc4cnn(-c5ccc(F)cc5)c4C=C2CC[C@H](S(=O)(=O)c2ccccn2)C3)nc1` [Example 61, ((4aS,6S)-1-(4-fluorophenyl)-6-(pyridin-2-ylsulfonyl)-1,4,5,6,7,8-hexahydro-4aH-benzo[f]indazol-4a-yl)(5-methoxypyridin-2-yl)methanone], the pIC50 was no less than 7.00.

`O=C(c1ccc(C2CC2)cn1)[C@]12Cc3cnn(-c4ccc(F)cc4)c3C=C1CC[C@H](S(=O)(=O)C1CCOCC1)C2` [Example 62, (5-cyclopropylpyridin-2-yl)((4aS,6S)-1-(4-fluorophenyl)-6-((tetrahydro-2H-pyran-4-yl)sulfonyl)-1,4,5,6,7,8-hexahydro-4aH-benzo[f]indazol-4a-yl)methanone] gave a pIC50 of no less than 7.00.

For `CC(C)S(=O)(=O)[C@H]1CCC2=Cc3c(cnn3-c3ccc(F)cc3)C[C@]2(C(=O)c2ccccn2)C1` [Example 63, ((4aS,6S)-1-(4-fluorophenyl)-6-(isopropylsulfonyl)-1,4,5,6,7,8-hexahydro-4aH-benzo[f]indazol-4a-yl)(pyridin-2-yl)methanone], the pIC50 was no less than 7.00.

`O=C(c1cc(C(F)(F)F)ccn1)[C@]12Cc3cnn(-c4ccc(F)cc4)c3C=C1CC[C@H](S(=O)(=O)c1ccc(F)cc1)C2` [Example 64, ((4aS,6S)-1-(4-fluorophenyl)-6-((4-fluorophenyl)sulfonyl)-1,4,5,6,7,8-hexahydro-4aH-benzo[f]indazol-4a-yl)(4-(trifluoromethyl)pyridin-2-yl)methanone]: the pIC50 is no less than 7.00.

Compound `O=C(c1ccccn1)[C@]12Cc3cnn(-c4ccc(F)cc4)c3C=C1CC[C@H](S(=O)(=O)C1CCC(F)(F)CC1)C2` [Example 65, ((4aS,6S)-6-((4,4-difluorocyclohexyl)sulfonyl)-1-(4-fluorophenyl)-1,4,5,6,7,8-hexahydro-4aH-benzo[f]indazol-4a-yl)(pyridin-2-yl)methanone] showed a pIC50 of no less than 7.00.

`Cn1cc(S(=O)(=O)[C@H]2CCC3=Cc4c(cnn4-c4ccc(F)cc4)C[C@]3(C(=O)c3ccc(OC(F)(F)F)cn3)C2)cn1` [Example 66, ((4aS,6S)-1-(4-fluorophenyl)-6-((1-methyl-1H-pyrazol-4-yl)sulfonyl)-1,4,5,6,7,8-hexahydro-4aH-benzo[f]indazol-4a-yl)(5-(trifluoromethoxy)pyridin-2-yl)methanone] gave a pIC50 of no less than 7.00.

Compound `O=C(c1ccccn1)[C@]12Cc3cnn(-c4ccc(F)cc4)c3C=C1CC[C@H](S(=O)(=O)C1CCC1)C2` [Example 67, ((4aS,6S)-6-(cyclobutylsulfonyl)-1-(4-fluorophenyl)-1,4,5,6,7,8-hexahydro-4aH-benzo[f]indazol-4a-yl)(pyridin-2-yl)methanone] had a pIC50 of no less than 7.00.

For `O=C(c1ccc(F)cn1)[C@]12Cc3cnn(-c4ccc(F)cc4)c3C=C1CC[C@H](S(=O)(=O)c1ccccn1)C2` [Example 68, ((4aS,6S)-1-(4-fluorophenyl)-6-(pyridin-2-ylsulfonyl)-1,4,5,6,7,8-hexahydro-4aH-benzo[f]indazol-4a-yl)(5-fluoropyridin-2-yl)methanone], the pIC50 is no less than 7.00.

On to `O=C(c1ccc(C(F)(F)F)cn1)[C@]12Cc3cnn(-c4ccc(F)cc4)c3C=C1CC[C@H](S(=O)(=O)C1CCOCC1)C2` [Example 70, ((4aS,6S)-1-(4-fluorophenyl)-6-((tetrahydro-2H-pyran-4-yl)sulfonyl)-1,4,5,6,7,8-hexahydro-4aH-benzo[f]indazol-4a-yl)(5-(trifluoromethyl)pyridin-2-yl)methanone], for which the pIC50 is no less than 7.00.

Turning to `O=C(c1cc(C(F)(F)F)ccn1)[C@]12Cc3cnn(-c4ccc(F)cc4)c3C=C1CC[C@H](S(=O)(=O)c1cnn(C3CC3)c1)C2` [Example 71, ((4aS,6S)-6-((1-cyclopropyl-1H-pyrazol-4-yl)sulfonyl)-1-(4-fluorophenyl)-1,4,5,6,7,8-hexahydro-4aH-benzo[f]indazol-4a-yl)(4-(trifluoromethyl)pyridin-2-yl)methanone], the pIC50 was no less than 7.00.

Consider `Cn1cc(S(=O)(=O)[C@H]2CCC3=Cc4c(cnn4-c4ccc(F)cc4)C[C@]3(C(=O)c3ccc(C4CC4)cn3)C2)cn1` [Example 72, (5-cyclopropylpyridin-2-yl)((4aS,6S)-1-(4-fluorophenyl)-6-((1-methyl-1H-pyrazol-4-yl)sulfonyl)-1,4,5,6,7,8-hexahydro-4aH-benzo[f]indazol-4a-yl)methanone], for which the pIC50 was no less than 7.00.

On to `O=C(c1cc(C(F)(F)F)ccn1)[C@]12Cc3cnn(-c4ccc(F)cc4)c3C=C1CC[C@H](S(=O)(=O)c1cnn(C3CC3)n1)C2` [Example 73, ((4aS,6S)-6-((2-cyclopropyl-2H-1,2,3-triazol-4-yl)sulfonyl)-1-(4-fluorophenyl)-1,4,5,6,7,8-hexahydro-4aH-benzo[f]indazol-4a-yl)(4-(trifluoromethyl)pyridin-2-yl)methanone], for which the negative logarithm of the IC50 (pIC50) is no less than 7.00.

On to `O=C(c1ccc(Cl)cn1)[C@]12Cc3cnn(-c4ccc(F)cc4)c3C=C1CC[C@H](S(=O)(=O)c1ccccn1)C2` [Example 74, (5-chloropyridin-2-yl)((4aS,6S)-1-(4-fluorophenyl)-6-(pyridin-2-ylsulfonyl)-1,4,5,6,7,8-hexahydro-4aH-benzo[f]indazol-4a-yl)methanone], for which the pIC50 is no less than 7.00.

`O=C(c1cc(C(F)(F)F)ccn1)[C@]12Cc3cnn(-c4ccc(F)cc4)c3C=C1CC[C@H](S(=O)(=O)c1cnn(CC(F)(F)F)c1)C2` [Example 75, ((4aS,6S)-1-(4-fluorophenyl)-6-((1-(2,2,2-trifluoroethyl)-1H-pyrazol-4-yl)sulfonyl)-1,4,5,6,7,8-hexahydro-4aH-benzo[f]indazol-4a-yl)(4-(trifluoromethyl)pyridin-2-yl)methanone] had a pIC50 of no less than 7.00.

As to `CCn1cc(S(=O)(=O)[C@H]2CCC3=Cc4c(cnn4-c4ccc(F)cc4)C[C@]3(C(=O)c3cc(C(F)(F)F)ccn3)C2)cn1` [Example 76, ((4aS,6S)-6-((1-ethyl-1H-pyrazol-4-yl)sulfonyl)-1-(4-fluorophenyl)-1,4,5,6,7,8-hexahydro-4aH-benzo[f]indazol-4a-yl)(4-(trifluoromethyl)pyridin-2-yl)methanone], the pIC50 was no less than 7.00.

Compound `CCn1ncc(S(=O)(=O)[C@H]2CCC3=Cc4c(cnn4-c4ccc(F)cc4)C[C@]3(C(=O)c3ccc(C(F)(F)F)cn3)C2)n1` [Example 77, ((4aS,6S)-6-((2-ethyl-2H-1,2,3-triazol-4-yl)sulfonyl)-1-(4-fluorophenyl)-1,4,5,6,7,8-hexahydro-4aH-benzo[f]indazol-4a-yl)(5-(trifluoromethyl)pyridin-2-yl)methanone] had a pIC50 of no less than 7.00.

Take `CN([C@H]1CCC2=Cc3c(cnn3-c3ccc(F)cc3)C[C@]2(C(=O)c2ccc(C3CC3)cn2)C1)S(=O)(=O)c1cnn(C)n1` [Example 78, N-((4aS,6S)-4a-(5-cyclopropylpicolinoyl)-1-(4-fluorophenyl)-4,4a,5,6,7,8-hexahydro-1H-benzo[f]indazol-6-yl)-N,2-dimethyl-2H-1,2,3-triazole-4-sulfonamide]: the pIC50 was no less than 7.00.

As a reminder, the pIC50 is the IC50 on a negative log10 scale, so that one unit is a factor of ten.

The values above are taken from patent publication US20210122730A1, “GLUCOCORTICOID RECEPTOR MODULATORS” (ORIC Pharmaceuticals, Inc., priority 2017, published 2021).
